How the values were obtained:
[1] = tested on: APOB secretion in the culture medium of hepatic cells; test: Secreted APOB ELISA in hepatic cells (K3 and JD4 iPSC-derived hepatocytes, human primary hepatocytes, HepG2); assay type: cell-based; conditions: 2 μg/mL, 24 hours; compared to DMSO-treated cells
Method: A. Human-induced pluripotent stem cells from a health donor (K3) and HoFH patient (JD4) were differentiated into hepatocytes via a defined protocol. Two different iPSC-derived Hepatocytes along with human primary hepatocytes and HepG2 cells were treated with 2 μg/mL of DL-1 for 24 hours and secreted APOB level were determined via human-specific APOB ELISA and were compared to DMSO-treated cells. […] Data shown as mean±SEM of triplicates (n=3); * p<0.05, *** P<0.001.
Human iPSCs were generated previously and have been described elsewhere (Si-Tayeb, 2010; Cayo et al., 2012). […]
Human APOB level was determined via a commercial sandwich ELISA (3715-1H-6; Mabtech), and the signal was detected using the HRP-TMB system. The concentration of APOB was determined using a standard curve with four parameters logistic regression model. Human APOA level was determined via a commercial sandwich ELISA (3710-1H-6; Mabtech) following manufacture instruction. Human albumin levels in cell culture supernatants were measured by commercial ELISA (E88-129; Bethyl Laboratories) following manufactural instructions.

APOB mRNA = APOB mRNA level by real-time qPCR; assay type: cell-based, human; conditions: 2 μg/mL, 24 hours
Method: G. Human iPSC-derived hepatocytes were treated with 2 μg/mL of DL-1 or equivalent concentration of DMSO for 24 hours. […] (A) APOB mRNA level was determined using real-time qPCR. (B) Intracellular APOB, LDLR, and HSP90 protein levels were determined via immunoblot. (C) Quantification of biological replicates of immunoblots on samples treated as in (B). Data are shown as mean±SEM of four replicates (n=4).
C. Human iPSC-derived hepatocytes (iPSC-Heps) were treated with 2 μg/mL of DL-1 or equivalent concentration of DMSO for 24 hours. In FIG. 7A, APOB mRNA level was determined using real-time qPCR. In FIG. 7B Intracellular APOB, LDLR, and HSP90 protein levels were determined via immunoblot; Quantification of biological replicates of immunoblots. Data are shown as mean±SD of four replicates (n=4). In FIG. 12A LDL uptake assay was performed by pre-treating cells with 2 μg/mL of DL-1, 20 μM of Atorvastatin, and equivalent concentration of DMSO for 24 hours followed by 4 hours of pHrodo-LDL exposure; LDL endocytosis was determined and quantified by fluorescence image; data are shown as mean±SD of triplicates (n=3). […]
Human iPSC-derived hepatocytes (Day 20) were treated with 2 μg/mL of DL-1 for 24 hours. […] Quantitative real-time PCR was performed on a BioRad CFX384 real-time PCR machine.

Question: With Sc1nc(S)nc(Nc2ccc(Nc3ccccc3)cc2)n1 (racemic) [DL-1, 6-{[4-(phenylamino)phenyl]amino}-1,3,5-triazine-2,4-dithiol] as the compound, how does the “secreted APOB level” value [1] read?
Answer: reduces APOB secretion

Question: What about the “APOB mRNA level” value (APOB mRNA) of the same compound?
Answer: no impact on APOB mRNA and intracellular protein levels

Reference: patent publication US20230101743A1, “SUBSTITUTED TRIAZINE COMPOUNDS AND USES THEREOF” (MUSC FOUNDATION FOR RESEARCH DEVELOPMENT, priority 2020, published 2023)
